Data taken from US20250152553A1, “CARBAMOTHIOATE, AND CARBAMODITHIOATE DERIVATIVES OF MDMA, MDA OR ITS OPTICALLY ACTIVE (R)- OR (S)-MDMA AND MDA ISOMERS” (EmpathBio, Inc., priority 2023, published 2025).
≈ marks a conversion by molar mass, not a printed value.

Assays:
[1] = Plasma stability in mouse plasma; assay type: in vitro ADME; conditions: for half-life at 1 μM: test concentration 1 μM
[2] = Chemical stability in PBS pH 6.5; assay type: physicochemical; conditions: for half-life: PBS pH 6.5; for Remaining Percentage (%) 0 min: PBS pH 6.5, 0 min; for Remaining Percentage (%) 30 min: PBS pH 6.5, 30 min; for Remaining Percentage (%) 60 min: PBS pH 6.5, 60 min; for Remaining Percentage (%) 120 min: PBS pH 6.5, 120 min; for Remaining Percentage (%) 240 min: PBS pH 6.5, 240 min
Solubility in FaSSIF = assay type: physicochemical; conditions: read-out: SOL (μM) FaSSIF

Structure (SMILES) | Remaining Percentages (%) 0 min ([1]; 5 μM) [%] | Remaining Percentages (%) 30 min ([1]; 5 μM) [%] | Remaining Percentages (%) 120 min ([1]; 5 μM) [%] | half-life at 5 μM ([1]; test concentration 5 μM (control)) [h] | half-life [2] [h] | Remaining Percentage (%) 0 min [2] [%] | Remaining Percentage (%) 30 min [2] [%] | Remaining Percentage (%) 60 min [2] [%] | Remaining Percentage (%) 120 min [2] [%] | Remaining Percentage (%) 240 min [2] [%] | solubility (Solubility in FaSSIF) [µM] | Remaining Percentages (%) 0 min ([1]; 1 μM) [%] | Remaining Percentages (%) 15 min ([1]; 1 μM) [%] | Remaining Percentages (%) 30 min ([1]; 1 μM) [%] | Remaining Percentages (%) 60 min ([1]; 1 μM) [%] | Remaining Percentages (%) 120 min ([1]; 1 μM) [%] | half-life at 1 μM [1] [h]
O=C(O)Cc1ccccc1Nc1c(Cl)cccc1Cl [Diclofenac, reference compound] | 100 | 58.97 | 10.45 | 0.594 | 0.695 | 100.00 | 60.68 | 35.44 | 13.15 | 1.85 |  |  |  |  |  |  | 
COC(=S)N(C)C(C)Cc1ccc2c(c1)OCO2 (stereo not shown) [Prodrug 1, O-methyl (1-(benzo[d][1,3]dioxol-5-yl)propan-2-yl)(methyl)carbamothioate] |  |  |  |  | > 17.1 | 100.00 | 95.62 | 102.35 | 93.11 | 106.73 | 278 (≈ 74.4 µg/mL) | 100 | 108.17 | 96.20 | 103.37 | 100.00 | > 8.52
COC(=S)NC(C)Cc1ccc2c(c1)OCO2 (stereo not shown) [Prodrug 2, O-methyl (1-(benzo[d][1,3]dioxol-5-yl)propan-2-yl)carbamothioate] |  |  |  |  | > 17.1 | 100.00 | 105.00 | 100.45 | 102.27 | 105.00 | 279 (≈ 70.8 µg/mL) | 100 | 101.54 | 99.62 | 96.35 | 91.94 | > 8.52
CCOC(=S)N(C)C(C)Cc1ccc2c(c1)OCO2 (stereo not shown) [Prodrug 3, O-ethyl (1-(benzo[d][1,3]dioxol-5-yl)propan-2-yl)(methyl)carbamothioate] |  |  |  |  | > 17.1 | 100.00 | 100.73 | 95.33 | 99.99 | 91.16 | 131 (≈ 36.9 µg/mL) | 100 | 106.31 | 97.30 | 97.75 | 96.85 | > 8.52
CCOC(=S)NC(C)Cc1ccc2c(c1)OCO2 (stereo not shown) [Prodrug 4, O-ethyl (1-(benzo[d][1,3]dioxol-5-yl)propan-2-yl)carbamothioate] |  |  |  |  | > 17.1 | 100.00 | 103.44 | 100.85 | 94.76 | 94.28 | 60.3 (≈ 16.1 µg/mL) | 100 | 100.00 | 100.28 | 97.80 | 95.32 | > 8.52
CSC(=O)N(C)C(C)Cc1ccc2c(c1)OCO2 (stereo not shown) [Prodrug 5, S-methyl (1-(benzo[d][1,3]dioxol-5-yl)propan-2-yl)(methyl)carbamothioate] |  |  |  |  | > 17.1 | 100.00 | 91.67 | 104.03 | 96.42 | 91.92 | 308 (≈ 82.3 µg/mL) | 100 | 100.78 | 98.96 | 100.78 | 94.52 | > 8.52
CSC(=O)NC(C)Cc1ccc2c(c1)OCO2 (stereo not shown) [Prodrug 6, S-methyl (1-(benzo[d][1,3]dioxol-5-yl)propan-2-yl)carbamothioate] |  |  |  |  | > 17.1 | 100.00 | 93.08 | 91.55 | 88.38 | 88.38 | 293 (≈ 74.1 µg/mL) | 100 | 99.73 | 103.77 | 102.16 | 90.30 | > 8.52
CCSC(=O)N(C)C(C)Cc1ccc2c(c1)OCO2 (stereo not shown) [Prodrug 7, S-ethyl (1-(benzo[d][1,3]dioxol-5-yl)propan-2-yl)(methyl)carbamothioate] |  |  |  |  | > 17.1 | 100.00 | 99.17 | 97.73 | 95.86 | 103.73 | 291 (≈ 82 µg/mL) | 100 | 110.62 | 111.95 | 113.27 | 102.65 | > 8.52
CCSC(=O)NC(C)Cc1ccc2c(c1)OCO2 (stereo not shown) [Prodrug 8, S-ethyl (1-(benzo[d][1,3]dioxol-5-yl)propan-2-yl)carbamothioate] |  |  |  |  | > 17.1 | 100.00 | 113.02 | 100.82 | 102.82 | 114.28 | 288 (≈ 77.1 µg/mL) | 100 | 110.30 | 106.34 | 105.81 | 101.19 | > 8.52
CSC(=S)N(C)C(C)Cc1ccc2c(c1)OCO2 (stereo not shown) [Prodrug 9, methyl (1-(benzo[d][1,3]dioxol-5-yl)propan-2-yl)(methyl)carbamodithioate] |  |  |  |  | > 17.1 | 100.00 | 97.22 | 96.84 | 107.55 | 89.55 | 30.4 (≈ 8.63 µg/mL) | 100 | 101.32 | 96.64 | 98.79 | 97.14 | > 8.52
CSC(=S)NC(C)Cc1ccc2c(c1)OCO2 (stereo not shown) [Prodrug 10, methyl (1-(benzo[d][1,3]dioxol-5-yl)propan-2-yl)carbamodithioate] |  |  |  |  | > 17.1 | 100.00 | 96.55 | 105.17 | 109.86 | 113.62 | 306 (≈ 82.5 µg/mL) | 100 | 100.89 | 98.00 | 100.22 | 89.09 | > 8.52
CCSC(=S)N(C)C(C)Cc1ccc2c(c1)OCO2 (stereo not shown) [Prodrug 11, ethyl (1-(benzo[d][1,3]dioxol-5-yl)propan-2-yl)(methyl)carbamodithioate] |  |  |  |  | > 17.1 | 100.00 | 95.01 | 93.41 | 96.45 | 94.38 | 63.7 (≈ 19 µg/mL) | 100 | 97.92 | 101.25 | 94.58 | 94.17 | > 8.52
CCSC(=S)NC(C)Cc1ccc2c(c1)OCO2 (stereo not shown) [Prodrug 12, ethyl (1-(benzo[d][1,3]dioxol-5-yl)propan-2-yl)carbamodithioate] |  |  |  |  | > 17.1 | 100.00 | 102.94 | 99.30 | 104.13 | 100.98 | 252 (≈ 71.3 µg/mL) | 100 | 101.19 | 92.04 | 92.28 | 89.25 | > 8.52
